Each structure is given as a SMILES string. Several values for one entry are separate records, joined by “and”; a condition that tells them apart may be missing. Equal entries are not always repeated.

Results on 66 compounds are retold here after ChEMBL document CHEMBL3988442, “University of Dundee, Small-Polar-MMV Screening Library” (2021).

The target in experiment [1] is Chromo domain-containing protein 1 (Saccharomyces cerevisiae (strain ATCC 204508 / S288c) (Baker's yeast), UniProt P32657). Description: ScCHD-1 Enzyme Inhibition Assay. The experiment is classed as functional.
Experiment [2] relates to Schistosoma mansoni. Description: High throughput screening of compounds against Schistosoma mansoni motility. On the set-up: dose or concentration left out as unconfirmed. The experiment is classed as functional.
The subject of experiment [3] is Plasmodium falciparum. Briefly: Calibr Malaria Delayed Death Assay SOP. The experiment is classed as functional, organism-based.
The nature of experiment [4]: microbe, parasite or virus in culture. The settings on record: Mycobacterium tuberculosis, 72 h, read-out: pIC50 (converted).
The nature of experiment [5]: microbe, parasite or virus in culture. The following applies: Mycobacterium tuberculosis, 96 h, read-out: pIC50 (converted).
Experiment [6] concerns the target ClpP1P2 (Mycobacterium tuberculosis (strain ATCC 25618 / H37Rv), UniProt P9WPC3+P9WPC5). Description: in vitro assay to detect presence of AMC directly proportional to the activity of ClpP1P2. GHDDI collaboration. The class given is functional.

Chain of Chromo domain-containing protein 1 (P32657 whole entry, the tested form may be a part): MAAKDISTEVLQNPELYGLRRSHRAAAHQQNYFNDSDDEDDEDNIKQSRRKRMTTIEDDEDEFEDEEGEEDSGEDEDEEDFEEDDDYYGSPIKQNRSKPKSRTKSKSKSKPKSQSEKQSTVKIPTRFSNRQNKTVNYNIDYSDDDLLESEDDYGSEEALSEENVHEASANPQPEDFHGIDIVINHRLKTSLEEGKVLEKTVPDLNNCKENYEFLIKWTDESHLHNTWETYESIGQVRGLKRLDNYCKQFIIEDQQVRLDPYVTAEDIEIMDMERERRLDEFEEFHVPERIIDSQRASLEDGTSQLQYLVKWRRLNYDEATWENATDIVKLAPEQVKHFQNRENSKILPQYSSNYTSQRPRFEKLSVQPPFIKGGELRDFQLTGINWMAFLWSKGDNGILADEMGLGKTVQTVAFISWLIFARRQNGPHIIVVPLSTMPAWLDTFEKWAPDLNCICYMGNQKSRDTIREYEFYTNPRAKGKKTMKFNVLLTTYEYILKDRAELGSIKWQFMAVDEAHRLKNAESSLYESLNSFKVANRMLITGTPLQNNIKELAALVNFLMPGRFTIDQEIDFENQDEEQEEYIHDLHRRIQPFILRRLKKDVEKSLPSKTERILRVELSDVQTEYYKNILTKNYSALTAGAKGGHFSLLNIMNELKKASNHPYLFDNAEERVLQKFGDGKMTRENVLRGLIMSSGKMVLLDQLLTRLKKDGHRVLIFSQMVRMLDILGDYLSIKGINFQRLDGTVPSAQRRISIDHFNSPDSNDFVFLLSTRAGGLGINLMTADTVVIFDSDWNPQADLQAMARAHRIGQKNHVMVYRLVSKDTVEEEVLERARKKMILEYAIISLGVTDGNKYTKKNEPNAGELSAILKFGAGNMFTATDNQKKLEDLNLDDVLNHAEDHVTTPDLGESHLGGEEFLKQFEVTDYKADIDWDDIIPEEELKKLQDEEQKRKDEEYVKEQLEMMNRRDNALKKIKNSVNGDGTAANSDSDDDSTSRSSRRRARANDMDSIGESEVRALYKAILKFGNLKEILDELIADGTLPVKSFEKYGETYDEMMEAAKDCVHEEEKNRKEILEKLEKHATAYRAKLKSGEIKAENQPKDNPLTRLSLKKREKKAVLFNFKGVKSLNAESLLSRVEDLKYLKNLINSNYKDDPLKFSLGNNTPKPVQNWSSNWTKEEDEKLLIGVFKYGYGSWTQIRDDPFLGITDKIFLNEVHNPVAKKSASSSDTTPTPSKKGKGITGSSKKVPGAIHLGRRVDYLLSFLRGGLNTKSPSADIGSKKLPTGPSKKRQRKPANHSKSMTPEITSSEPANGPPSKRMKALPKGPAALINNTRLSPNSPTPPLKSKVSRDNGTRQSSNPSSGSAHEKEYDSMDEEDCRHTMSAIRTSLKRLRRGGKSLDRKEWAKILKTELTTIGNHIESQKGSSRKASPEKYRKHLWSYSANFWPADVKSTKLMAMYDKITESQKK
Chain of ClpP1P2 (P9WPC5 whole entry): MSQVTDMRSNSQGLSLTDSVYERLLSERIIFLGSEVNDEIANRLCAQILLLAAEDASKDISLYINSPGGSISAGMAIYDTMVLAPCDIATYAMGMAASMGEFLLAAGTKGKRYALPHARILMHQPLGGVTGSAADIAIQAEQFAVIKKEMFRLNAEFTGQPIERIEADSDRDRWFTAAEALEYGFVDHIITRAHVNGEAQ
Chain of ClpP1P2 (P9WPC3 whole entry): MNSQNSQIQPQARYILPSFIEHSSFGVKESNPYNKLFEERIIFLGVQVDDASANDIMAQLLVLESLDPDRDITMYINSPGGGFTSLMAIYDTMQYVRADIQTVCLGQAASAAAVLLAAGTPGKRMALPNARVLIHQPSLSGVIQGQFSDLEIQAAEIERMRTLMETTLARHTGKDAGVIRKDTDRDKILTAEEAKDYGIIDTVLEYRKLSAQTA

`CN(C)C(C)(C)CNC(=O)C(C)(C)c1ccccc1F` gave an IC50 in experiment [1] greater than 29.5 µM. The “Percent Effect” value in experiment [2] was -62.05%. The compound `O=C(Nc1cccc(CN2CCOC2=O)c1)N1CCSCC1` gave an IC50 in experiment [1] greater than 29.5 µM. Also, the “Percent Effect” value in experiment [2] was -6.059%. The matching figures for `Cc1cc(CN(C)C(=O)NC(C)c2nncn2C)no1` (configuration not stated): greater than 29.5 µM and 0.6145%. In experiment [1], `CCn1ccnc1-c1nc2cc(S(=O)(=O)N3CCCC3)ccc2n1C` showed an IC50 greater than 29.5 µM. Also, the “Percent Effect” value in experiment [2] was -59.51%. The matching figures for `CC(=O)NCCc1ccc(S(=O)(=O)N(CC(C)C)C(C)C)s1`: greater than 29.5 µM and 41.16%.

Take `CSCC(CCO)NC(=O)Nc1cc(Br)ccc1C` (configuration not stated): the IC50 in experiment [1] is greater than 29.5 µM. Besides, the “Percent Effect” value in experiment [2] is -20.66%. With `OCC1CCCCN1c1ccc(-c2nc(-c3ccccc3F)no2)cn1` (configuration not stated), the pIC50 in experiment [3] was 7.272 and 6.795. The compound further had an IC50 in experiment [1] greater than 29.5 µM. In experiment [1], `CCCN(CC(=O)NC)C(=O)c1ccc(-c2ccsc2)nc1C` showed an IC50 greater than 29.5 µM. Further, the “Percent Effect” value in experiment [2] is listed as -8.65%. The matching figures for `CC(NC(=O)CCCOc1ccccc1Cl)c1ccncc1` (configuration not stated): greater than 29.5 µM and -74.47%.

The compound `CSc1ccccc1CN1CCCn2nc(CNC(=O)N(C)C)cc2C1` had an IC50 in experiment [1] greater than 29.5 µM. In addition, in experiment [2], the “Percent Effect” value is reported as -17.72%.

Compound `CCOc1ncccc1NC(=O)c1cc2c(s1)CCC2` had an IC50 in experiment [1] greater than 29.5 µM. The “Percent Effect” value in experiment [2] is -62.61%. The matching figures for `CC(c1cccnc1)N(C)Cc1csc(-c2ccccn2)n1` (configuration not stated): greater than 29.5 µM and -97.18%.

With `Cc1cccc(NC(=O)Cn2ncc(SCC(N)=O)c(Cl)c2=O)c1C`, the IC50 in experiment [1] is greater than 29.5 µM. The “Percent Effect” value in experiment [2] was 40.97%. The matching figures for `COc1ncccc1C(=O)Nc1nc2c(s1)CN(S(=O)(=O)C1CC1)CC2`: greater than 29.5 µM and -71.23%. The matching figures for `Cc1cnc(CNc2c(F)cccc2-n2cccn2)o1`: greater than 29.5 µM and -41.52%. The matching figures for `Cc1ccccc1CC(C)NCc1c(C)nn(C)c1N1CCOCC1.Cl` (configuration not stated): greater than 29.5 µM and 7.535%. Turning to `COC(=O)c1ccc2ccn(CC3CCCO3)c(=O)c2c1` (configuration not stated), the IC50 in experiment [1] was greater than 29.5 µM. In addition, in experiment [2], the “Percent Effect” value is listed as -62.88%. `c1cnn(Cc2nnc(C3CCN(C4CCOCC4)CC3)n2C2CC2)c1`: the IC50 in experiment [1] was greater than 29.5 µM. On the same count and under the same terms, next, `O=C(O)c1nnn(-c2ccc(OC(F)(F)F)cc2)c1-c1ccncc1`: greater than 29.5 µM; `O=C(NC1CC1)[C@H]1C[C@H]2OCC[C@H]2N(CC2CCOCC2)C1`: greater than 29.5 µM; `CC(C)CN1C[C@H]2CCN(c3ncccn3)CC[C@H]2S1(=O)=O`: greater than 29.5 µM. Same read-out and setting: under `CC(C)COCc1cncc2c1CCN(Cc1cnn(C)c1)C2` stands greater than 29.5 µM; under `CCn1ccnc1CN1CCC(CCC(=O)Nc2ccccc2Cl)CC1`, greater than 29.5 µM; under `COc1ccc(C(=O)C2CCCN(Cc3ccncc3)C2)c(OC)c1` (configuration not stated), greater than 29.5 µM.

In experiment [1], `COCCNC(=O)C(C)n1cc(Br)cn1` (configuration not stated) showed an IC50 greater than 29.5 µM. The same measure, in the same setting: under `O=C1NCc2ccc(NC(=O)C3CCCN3c3nccs3)cc21` (configuration not stated) stands greater than 29.5 µM; under `COc1ccc(CC(=O)N(C)Cc2nnc3ccccn23)cc1`, greater than 29.5 µM; under `COc1ccc(NC(=O)CCC2CCCN(Cc3ncon3)C2)cc1Cl` (configuration not stated), greater than 29.5 µM. On the same count and under the same terms, under `O=C1CSC(c2cccs2)c2cnn(C3CCCC3)c2N1` (configuration not stated) stands greater than 29.5 µM; under `CN(C(=O)C1CCCCC1)[C@@H]1CCC[C@@H](N2CCOCC2)[C@@H]1O`, greater than 29.5 µM.

On to `CCOc1ccc(N2CCCN=C2NC(=O)c2ccccc2C)cc1`, for which the IC50 in experiment [1] was greater than 29.5 µM. Same read-out and setting: under `CSCc1nc(C(C)(C)NC(=O)OC(C)(C)C)no1` stands greater than 29.5 µM.

In experiment [1], `c1ncn(CC2CCCCN2Cc2csc(C3CCCC3)n2)n1` (configuration not stated) showed an IC50 greater than 29.5 µM. In turn, `CCN(CC)CCNC(=O)c1cc(C(C)C)nc(N2CCCC2)n1` gave an IC50 in experiment [1] greater than 29.5 µM. On the same count and under the same terms, next, `Cn1cnc2c1C(COCC1CC1)CN(C(=O)Cc1ccsc1)C2` (configuration not stated): greater than 29.5 µM. Turning to `Nc1ncc2c(n1)CN(C1CCCC1)C2=O`, the IC50 in experiment [4] is 16.8 µM; in experiment [5] it was 20.4 µM; in experiment [1], greater than 29.5 µM. `COc1ccc(C(=O)C2CCCN(CCCn3cccn3)C2)c(OC)c1` (configuration not stated) had an IC50 in experiment [1] greater than 29.5 µM. Same read-out and setting: next, `O=C(NCC(F)(F)F)NC1CCCc2c1cnn2CCO` (configuration not stated): greater than 29.5 µM.

As to `CN(C)C(CNC(=O)c1cc2c([nH]c1=O)CCCC2=O)c1ccsc1` (configuration not stated), the IC50 in experiment [1] is greater than 29.5 µM. With `Cc1nc(CN2CCCC(CCc3c(F)cccc3F)C2)c[nH]1` (configuration not stated), in experiment [1], the IC50 is greater than 29.5 µM.

For the compound `Cc1ncc(S(C)(=O)=O)c(C2CCCNC2)n1` (configuration not stated), the IC50 in experiment [1] was greater than 29.5 µM. Same read-out and setting: under `c1cn(Cc2nnc(C3CCN(c4nccs4)CC3)n2C2CC2)cn1` stands greater than 29.5 µM; under `CCc1c(C)nn(CCNC(=O)C2CCCN(C(=O)N(C)C)C2)c1C` (configuration not stated), greater than 29.5 µM.

In turn, `Cc1nc(N2CCN(C)CC2)ncc1C(=O)N1CC(C)(C)C(C)(O)C1` (configuration not stated) had an IC50 in experiment [1] greater than 29.5 µM. `O=C1N(Cc2cccc(F)c2F)CCCC1(O)CNC1CCCC1` (configuration not stated) had an IC50 in experiment [1] greater than 29.5 µM. For the compound `O=C(Cn1cc(-c2ccccc2)ncc1=O)Nc1ccncc1`, the IC50 in experiment [6] is greater than 100 µM; in experiment [1], greater than 29.5 µM. Consider `COc1ccc(C(=O)N2CCCCC2c2nc(C)cs2)nn1` (configuration not stated), for which the IC50 in experiment [1] was 21.8 µM and > 29.5 µM. The same measure, in the same setting: next, `CC(Cn1cccn1)NC(=O)N1CCN(Cc2cccs2)CC1` (configuration not stated): greater than 29.5 µM.

Consider `O=C(Cn1c(=O)nc2n1C(=O)N(c1ccccc1)C2)Nc1ccccc1`, for which, in experiment [1], the IC50 was greater than 29.5 µM. Same read-out and setting: under `Cc1cnn(C2CN(CC(O)c3ccc(F)cc3)C2)c1` (configuration not stated) stands greater than 29.5 µM; under `CN(C)Cc1ccc(C2CCCCN2C(=O)c2cccc(CO)n2)cc1` (configuration not stated), greater than 29.5 µM. As for `COCCn1ccc(NC(=O)Nc2ccc(C(N)=O)c(F)c2)n1`, in experiment [1], the IC50 is greater than 29.5 µM.

In experiment [1], `CCNC(=O)CCN1CCC(c2cc(N3CCOCC3)nc(C)n2)CC1` gave an IC50 greater than 29.5 µM. On the same count and under the same terms, next, `O=C(NC1CC1)[C@H]1CC[C@@H]2[C@@H](CCN2c2ncc(F)cn2)O1`: greater than 29.5 µM. In experiment [1], `O=C(NCc1ccco1)[C@H]1C[C@H]2OCC[C@H]2N(C(=O)c2ccco2)C1` showed an IC50 greater than 29.5 µM.

Compound `Cc1nn(C)c(C)c1NC(=O)CCn1ncc2c(C)cccc21` had an IC50 in experiment [1] greater than 29.5 µM. Consider `O=C(Cn1cc(-c2ccccc2)ncc1=O)Nc1nnc[nH]1`, for which the IC50 in experiment [6] is greater than 100 µM; in experiment [1], greater than 29.5 µM. For the compound `O=C(CS(=O)(=O)CC1CCCCC1)NC1CCCCNC1=O` (configuration not stated), in experiment [1], the IC50 was greater than 29.5 µM. `Cc1c(C(=O)NCC2CCCO2)nnn1-c1cccc2c1CCN(C)C2` (configuration not stated): the IC50 in experiment [1] is greater than 29.5 µM.

Take `O=C(Cc1cccnc1)N1CCC(OCc2ccccc2)CC1`: the IC50 in experiment [1] is greater than 29.5 µM. Still for that read-out and setting: next, `O=C(c1csc(Br)c1)N1CCCC(n2ccnc2)C1` (configuration not stated): greater than 29.5 µM. The compound `Cc1ccc(C(=O)NCCCN2CCOCC2)c(Cl)c1` showed an IC50 in experiment [1] greater than 29.5 µM. The same measure, in the same setting: next, `O=C(Cn1c(=O)n(Cc2ccco2)c2ncccc21)NC1CCCCC1`: greater than 29.5 µM; `CCn1nc(CC(C)C)cc1C(=O)N1CC[C@@H](O)C1`: greater than 29.5 µM; `O=C1CSC(c2ccsc2)c2sccc2N1` (configuration not stated): greater than 29.5 µM. Still for that read-out and setting: next, `COc1c(CNC2CCc3c(Cl)cccc32)c(C)nn1C` (configuration not stated): greater than 29.5 µM.
